Data as given in patent US7807828B2, “Olanzapine analogs and methods of use thereof” (Hypnion, Inc., priority 2005, dated 2010).
Values joined by “and” are separate entries in the source; they are usually repeats but may differ in a detail not shown here. Identical values can stand only once.

How the values were obtained:
[1] = target: T1, histamine H1 receptor (bovine) (Bos taurus, UniProt P30546); test: Histamine H1 binding assay, bovine cerebellar membranes, [3H]pyrilamine; conditions: for Ki: Table 7A, Ki in nM
T1 construct: the receptors were obtained from bovine cerebellar membrane tissue; from tissue; host or cells: bovine cerebellar membranes
T1 sequence (P30546 whole entry): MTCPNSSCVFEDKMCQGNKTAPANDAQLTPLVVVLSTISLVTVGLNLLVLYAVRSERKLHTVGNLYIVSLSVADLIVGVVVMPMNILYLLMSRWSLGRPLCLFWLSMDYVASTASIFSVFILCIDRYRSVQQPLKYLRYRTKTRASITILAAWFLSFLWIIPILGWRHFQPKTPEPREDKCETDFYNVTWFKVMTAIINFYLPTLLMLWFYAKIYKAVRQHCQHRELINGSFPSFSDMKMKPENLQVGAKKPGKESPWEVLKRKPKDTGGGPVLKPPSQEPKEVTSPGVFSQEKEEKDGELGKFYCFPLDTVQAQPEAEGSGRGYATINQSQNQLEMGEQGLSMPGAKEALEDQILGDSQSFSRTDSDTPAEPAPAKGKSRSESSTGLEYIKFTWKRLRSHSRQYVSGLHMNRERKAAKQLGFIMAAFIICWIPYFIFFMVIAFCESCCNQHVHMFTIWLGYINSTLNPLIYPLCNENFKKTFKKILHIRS

D2 (h) = D2 (h) (Homo sapiens, UniProt P14416); test: Dopamine D2 binding assay; conditions: Table 7A; unit inferred
Chain of D2 (h) (P14416 whole entry): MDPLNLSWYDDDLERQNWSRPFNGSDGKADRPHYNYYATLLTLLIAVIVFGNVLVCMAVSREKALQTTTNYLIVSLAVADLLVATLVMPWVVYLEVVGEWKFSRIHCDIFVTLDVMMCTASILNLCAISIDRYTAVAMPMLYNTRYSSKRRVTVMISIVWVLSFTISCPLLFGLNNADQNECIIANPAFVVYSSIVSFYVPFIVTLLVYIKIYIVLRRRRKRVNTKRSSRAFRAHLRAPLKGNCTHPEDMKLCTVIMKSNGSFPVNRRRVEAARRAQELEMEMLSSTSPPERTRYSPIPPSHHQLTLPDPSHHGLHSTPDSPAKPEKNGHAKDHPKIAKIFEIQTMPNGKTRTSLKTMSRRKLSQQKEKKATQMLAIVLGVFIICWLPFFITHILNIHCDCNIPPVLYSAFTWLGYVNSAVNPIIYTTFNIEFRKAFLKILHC

5HT2a (hctx) = target: T2, 5HT2a (hctx) (Homo sapiens, UniProt P28223); test: 5HT2a (hctx) binding assay; conditions: Table 7B; unit inferred
T2 construct: (hctx); from tissue; host or cells: human cortex (my reading of 'hctx')
T2 sequence (P28223 whole entry): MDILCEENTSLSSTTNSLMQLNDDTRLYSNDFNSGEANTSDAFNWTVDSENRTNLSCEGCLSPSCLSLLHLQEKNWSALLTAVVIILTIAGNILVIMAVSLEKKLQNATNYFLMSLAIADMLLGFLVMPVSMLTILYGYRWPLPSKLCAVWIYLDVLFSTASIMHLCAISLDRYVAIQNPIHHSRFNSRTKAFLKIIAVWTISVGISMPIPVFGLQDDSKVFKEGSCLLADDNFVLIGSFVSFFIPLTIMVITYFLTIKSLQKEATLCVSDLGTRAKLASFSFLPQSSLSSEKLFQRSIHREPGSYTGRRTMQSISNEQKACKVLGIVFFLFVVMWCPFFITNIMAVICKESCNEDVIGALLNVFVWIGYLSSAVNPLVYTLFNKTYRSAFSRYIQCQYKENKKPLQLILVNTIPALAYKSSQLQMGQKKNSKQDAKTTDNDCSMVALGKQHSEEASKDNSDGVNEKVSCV

adult, male Wistar rats = test: Sleep-wakefulness monitoring (SCORE-2000, EEG/EMG) in rats; format: in vivo, rat; conditions: minutes; for LONGEST UNINTERRUPTED SLEEP BOUT 10 mg/kg / NREM CUMULATION 10 mg/kg: oral bolus at CT-18, 10 mg/kg
Experimental: Sleep-wakefulness, locomotor activity and body temperature are monitored in male Wistar rats treated with a test compound (i.e., olanzapine analog) initially at a concentration of 10 mg/kg. Higher and lower doses are assayed for select compounds (e.g., as high as 45 mg/kg, and as low as necessary to establish a no-effect dose). Treatments are administered at CT-18, the peak of the activity dominated period (6 hours after lights-off), and produced soporific (sleep-inducing) effects characterized by increased non-REM sleep time, increased sleep continuity, but without evidence of REM sleep inhibition or rebound insomnia.
Sleep-wakefulness, locomotor activity and body temperature were monitored in vivo with various compounds of the invention. Adult, male Wistar rats (250 g at time of surgery, Charles River Laboratories, Wilmington Mass.) were anesthetized (2% isoflourane in medical grade oxygen) and surgically prepared with a cranial implant to permit chronic electro-encephalogram (EEG) and electromyogram (EMG) recording. Body temperature and locomotor activity were monitored via a miniature transmitter (Mini-Mitter, Bend, Oreg.) surgically placed in the abdomen. The cranial implant consisted of stainless steel screws (two frontal (+3.2 AP from bregma, ±2.0 ML) and two occipital (−6.9 AP, ±5.5 ML)) for EEG recording. Two Teflon®-coated stainless steel wires were positioned under the nuchal trapezoid muscles for EMG recording. All leads were soldered to a miniature connector prior to surgery, and gas sterilized in ethylene oxide. The implant assembly was affixed to the skull with dental acrylic. A minimum of three weeks was allowed for surgical recovery.
Each rat was permanently housed in its own individual recording cage located within separate, ventilated compartments of custom-designed stainless steel cabinets. Each cage was enhanced with a filter-top riser and low-torque swivel-commutator. Food and water were available ad libitum. A 24-hr light-dark cycle (12 hours light, 12 hours dark) was maintained throughout the study. Animals were undisturbed for at least 48 hours before and after treatments.
Sleep and wakefulness were determined using “SCORE-2000™” (Hypnion, Worcester, Mass.)—an internet-based sleep-wake and physiological monitoring system. The system monitored amplified EEG (bandpass 1-30 Hz), integrated EMG (bandpass 10-100 Hz), body temperature and non-specific locomotor activity (LMA) via telemetry, and drinking activity, continuously and simultaneously. Arousal states were classified on-line as non-REM (NREM) sleep, REM sleep, wake, or theta-dominated wake every 10 seconds. Total drinking and locomotor activity counts, and body temperature were quantitiated and recorded each minute, using EEG feature extraction and pattern-matching algorithms. […] The classification algorithm used individually-taught EEG-arousal-state templates, plus EMG criteria to differentiate REM sleep from theta-dominated wakefulness, plus behavior-dependent contextual rules (e.g., if the animal was drinking, it is awake). Drinking and locomotor activity intensity (LMA) were recorded every 10 seconds, while body temperature was recorded each minute. Locomotor activity was detected by a telemetry receiver (Mini-Mitter) beneath the cage. Telemetry measures (LMA and body temperature) were not part of the scoring algorithm; thus, sleep-scoring and telemetry data were independent measures.
Compounds were administered at CT-18, the peak of the activity-dominated period, sufficient time was allowed to view the time course of the treatment effect before lights-on (6 hours post-treatment). Compounds were suspended in sterile 0.25% or 0.5% methylcellulose (1-2 ml/kg). Treatments were administered orally as a bolus.
A parallel group study design was employed. […]

H1 (rat) = H1 (rat) (Rattus norvegicus, UniProt P31390); test: H1 (rat) competitive binding assay; conditions: Table 7A; Ki in nM
Chain of H1 (rat) (P31390 whole entry): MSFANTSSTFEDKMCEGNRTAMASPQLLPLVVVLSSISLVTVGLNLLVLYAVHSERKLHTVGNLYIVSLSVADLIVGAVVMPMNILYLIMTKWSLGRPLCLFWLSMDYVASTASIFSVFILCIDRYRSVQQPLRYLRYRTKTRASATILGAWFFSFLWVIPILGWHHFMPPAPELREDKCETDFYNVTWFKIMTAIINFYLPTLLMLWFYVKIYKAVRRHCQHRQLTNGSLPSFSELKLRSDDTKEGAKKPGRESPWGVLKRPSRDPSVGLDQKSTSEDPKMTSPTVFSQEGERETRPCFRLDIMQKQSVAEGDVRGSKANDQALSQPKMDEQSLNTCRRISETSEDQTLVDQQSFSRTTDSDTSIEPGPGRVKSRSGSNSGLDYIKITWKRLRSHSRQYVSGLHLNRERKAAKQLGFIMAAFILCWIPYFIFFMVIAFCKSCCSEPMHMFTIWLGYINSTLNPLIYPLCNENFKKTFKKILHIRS
Experimental: (§1) Binding assays were performed using various sleep-inducing agents and derivatives selected from those listed in Table 1 in competitive binding assays with known standards for the H1 histamine receptor, and the M1, M2, and M3 muscarinic receptors, alpha 1 and alpha 2 receptors, D1 and D2 receptors, 5HT2a, 5HT2b, 5HT2c, 5HT2c, and 5HT7 receptors.
(§2) The histamine H1 assays are described in Chang, et al., Heterogeneity of Histamine H1-Receptors: Species Variation in [^3H]Mepyramine Binding of Brain Membranes. Journal of Neurochemistry. 32: 1653-1663 (1979); Martinez-Mir, M. I., Pollard, H., Moreau, J., et al. Three Histamine Receptors (H1, H2, and H3) Visualized in the Brain of Human and Non-Human Primates. Brain Res. 526: 322-327 (1990); Haaksma, E. E. J., Leurs, R. and Timmerman, H. Histamine Receptors: Subclasses and Specific Ligands. Pharmac. Ther. 47: 73-104 (1990). The muscarinic assays are described in Buckley, N. J., Bonner, T. I., Buckley, C. M., and Brann, M. R. Antagonist Binding Properties of Five Cloned Muscarinic Receptors Expressed in CHO-K1 Cells. Mol. Pharmacol. 35: 469-476 (1989). The assays were performed according to the preceding articles, with the following modifications. Chemical reagents in the following were obtained from Sigma, St. Louis, Mo.

[2] = target: T3, human recombinant M3 expressed in CHO cells (Homo sapiens, UniProt P20309); test: M3 muscarinic receptor binding assay; conditions: Table 7A, third line of column M1 M2 M3
T3 construct: purchased PerkinElmer, Inc., Wellesley, Mass; host or cells: CHO cells
T3 sequence (P20309 whole entry): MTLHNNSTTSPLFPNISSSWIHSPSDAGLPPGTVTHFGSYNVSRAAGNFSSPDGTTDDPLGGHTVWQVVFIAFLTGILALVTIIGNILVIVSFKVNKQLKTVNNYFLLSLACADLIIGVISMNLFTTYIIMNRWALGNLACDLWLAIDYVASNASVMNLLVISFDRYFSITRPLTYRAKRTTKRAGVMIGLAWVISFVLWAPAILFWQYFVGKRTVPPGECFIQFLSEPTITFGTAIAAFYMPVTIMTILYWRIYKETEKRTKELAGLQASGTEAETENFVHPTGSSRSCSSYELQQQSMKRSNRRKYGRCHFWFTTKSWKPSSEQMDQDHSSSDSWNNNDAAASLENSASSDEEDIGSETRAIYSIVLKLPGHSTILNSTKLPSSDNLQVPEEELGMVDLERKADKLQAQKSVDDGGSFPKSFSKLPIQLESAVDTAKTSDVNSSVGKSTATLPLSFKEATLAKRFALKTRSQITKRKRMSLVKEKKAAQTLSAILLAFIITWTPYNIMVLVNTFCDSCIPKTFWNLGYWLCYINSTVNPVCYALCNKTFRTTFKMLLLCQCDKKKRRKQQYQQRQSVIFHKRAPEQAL

H1 (hr) = target: T4, H1 (hr) (Homo sapiens, UniProt P35367); test: H1 (hr) Novascreen binding assay; conditions: Table 7A; Ki in nM
T4 construct: Novascreen, MDS, Cerep (assay providers)
T4 sequence (P35367 whole entry): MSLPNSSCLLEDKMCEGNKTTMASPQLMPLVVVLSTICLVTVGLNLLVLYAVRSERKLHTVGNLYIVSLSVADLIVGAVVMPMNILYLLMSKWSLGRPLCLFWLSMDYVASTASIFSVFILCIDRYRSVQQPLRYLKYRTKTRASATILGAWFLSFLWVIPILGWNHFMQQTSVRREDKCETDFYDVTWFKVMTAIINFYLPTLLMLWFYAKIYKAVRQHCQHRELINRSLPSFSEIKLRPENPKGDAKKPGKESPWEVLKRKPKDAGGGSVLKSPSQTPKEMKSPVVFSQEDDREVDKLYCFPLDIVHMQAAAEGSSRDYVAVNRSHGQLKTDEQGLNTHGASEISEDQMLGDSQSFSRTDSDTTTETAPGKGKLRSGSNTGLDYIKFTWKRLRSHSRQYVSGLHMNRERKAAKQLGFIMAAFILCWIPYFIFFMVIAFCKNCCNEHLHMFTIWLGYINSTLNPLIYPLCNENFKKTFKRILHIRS
Experimental: as §1, §2

D1 (h) = D1 (h) (Homo sapiens, UniProt P21728); test: Dopamine D1 (human recombinant) binding assay; conditions: Table 7A; unit inferred
Chain of D1 (h) (P21728 whole entry): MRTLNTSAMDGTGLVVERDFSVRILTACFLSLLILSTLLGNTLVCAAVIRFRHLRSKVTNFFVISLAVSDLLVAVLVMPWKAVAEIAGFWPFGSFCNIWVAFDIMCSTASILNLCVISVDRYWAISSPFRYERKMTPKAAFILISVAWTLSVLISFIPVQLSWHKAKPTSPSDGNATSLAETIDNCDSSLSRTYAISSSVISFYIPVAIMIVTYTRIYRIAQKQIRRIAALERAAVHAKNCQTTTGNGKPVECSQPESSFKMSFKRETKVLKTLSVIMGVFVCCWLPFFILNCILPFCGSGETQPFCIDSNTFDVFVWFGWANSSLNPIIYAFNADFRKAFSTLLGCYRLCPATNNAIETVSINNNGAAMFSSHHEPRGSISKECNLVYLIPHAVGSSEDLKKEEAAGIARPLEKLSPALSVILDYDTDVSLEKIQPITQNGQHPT
Experimental: Dopamine, D1 (human recombinant) binding assay was performed according to published procedures. See, e.g., Jarvie, et al. J. Recept Res., 13(1-4): 573-90 (1993); and Billard, et al. Life Sciences, 35(18): 1885-93 (1984), with modifications

Compound | Ki [1] [nM] | Ki (D2 (h)) | Ki (5HT2a (hctx)) [nM] | Ki (H1 (rat)) [nM] | Ki [2] [nM] | Ki (H1 (hr)) | Ki (D1 (h)) [nM] | specificity for H1 over the muscarinic receptors ([1]; from Ki for H1 and M1, M2, M3) | LONGEST UNINTERRUPTED SLEEP BOUT 0.3 mg/kg (adult, male Wistar rats; oral bolus at CT-18, 0.3 mg/kg) [min] | LONGEST UNINTERRUPTED SLEEP BOUT 1 mg/kg (adult, male Wistar rats; oral bolus at CT-18, 1 mg/kg) [min] | LONGEST UNINTERRUPTED SLEEP BOUT 3 mg/kg (adult, male Wistar rats; oral bolus at CT-18, 3 mg/kg) [min] | NREM CUMULATION 3 mg/kg (adult, male Wistar rats; oral bolus at CT-18, 3 mg/kg) [min] | LONGEST UNINTERRUPTED SLEEP BOUT 10 mg/kg (adult, male Wistar rats) [min] | NREM CUMULATION 10 mg/kg (adult, male Wistar rats) [min] | LONGEST UNINTERRUPTED SLEEP BOUT 30 mg/kg (adult, male Wistar rats; oral bolus at CT-18, 30 mg/kg) [min] | NREM CUMULATION 30 mg/kg (adult, male Wistar rats; oral bolus at CT-18, 30 mg/kg) [min]
Cc1cc2c(s1)Nc1ccccc1N=C2N1CCN(CC(C)(C)C(=O)O)CC1 [Compound 46] | 56 | 1100 nM and 533 nM and 847 nM | 639 | 34 | > 10000 | 30 nM and 44 nM | 1550 | highly specific for H1 over the muscarinic receptors | 3.9 | 11.8 ± 2.7 | 10.8 ± 3.2 | 38 ± 4 | 15.5 ± 4.1 | 42 ± 5 |  | 
CCc1cc2c(s1)Nc1ccccc1N=C2N1CCN(CC(C)(C)C(=O)O)CC1 [Compound 90] | 30 | 196 nM | 314 | 55.5 | > 10000 | 70 nM | 565 |  |  |  | 12.3 ± 4.0 |  |  | 48 ± 8 |  | 
Cc1cc2c(s1)Nc1ccccc1N=C2N1CCN(CC2(C(=O)O)CC2)CC1 [Compound 91] | 30.1 | 202 nM | 59.1 | 53 | > 10000 | 60.6 nM | 278 |  |  |  |  |  | 10.7 ± 3.2 | 26 ± 4 |  | 

More lines, main results first:

Ki [1] [nM] | Ki (D2 (h)) | Ki (5HT2a (hctx)) [nM] | Ki (H1 (rat)) [nM] | Ki [2] [nM] | Ki (H1 (hr)) | Ki (D1 (h)) [nM] | Compound | specificity for H1 over the muscarinic receptors ([1]; from Ki for H1 and M1, M2, M3) | LONGEST UNINTERRUPTED SLEEP BOUT 0.3 mg/kg (adult, male Wistar rats; oral bolus at CT-18, 0.3 mg/kg) [min] | LONGEST UNINTERRUPTED SLEEP BOUT 1 mg/kg (adult, male Wistar rats; oral bolus at CT-18, 1 mg/kg) [min] | LONGEST UNINTERRUPTED SLEEP BOUT 3 mg/kg (adult, male Wistar rats; oral bolus at CT-18, 3 mg/kg) [min] | NREM CUMULATION 3 mg/kg (adult, male Wistar rats; oral bolus at CT-18, 3 mg/kg) [min] | LONGEST UNINTERRUPTED SLEEP BOUT 10 mg/kg (adult, male Wistar rats) [min] | NREM CUMULATION 10 mg/kg (adult, male Wistar rats) [min] | LONGEST UNINTERRUPTED SLEEP BOUT 30 mg/kg (adult, male Wistar rats; oral bolus at CT-18, 30 mg/kg) [min] | NREM CUMULATION 30 mg/kg (adult, male Wistar rats; oral bolus at CT-18, 30 mg/kg) [min]
53.5 | 2480 nM | 232 | 95.6 | > 10000 | 119 nM | 129 | Cc1cc2c(s1)Nc1ccccc1N=C2N1CCN(CCC(=O)O)CC1 [Compound 92] |  |  |  |  |  | 3.1 ± 2.5 | 10 ± 4 | 5.7 ± 1.8 | 27 ± 4
45.2 | 107 nM | 73 | 110 | > 10000 | 62 nM | 300 | CC(C)c1cc2c(s1)Nc1ccccc1N=C2N1CCN(CC(C)(C)C(=O)O)CC1 [Compound 94] |  |  |  |  |  | 19.9 ± 3.7 | 47 ± 6 |  | 
